Test results reported in ChEMBL document CHEMBL6120994, “Unravelling the potential of natural chelating agents in the control of Staphylococcus aureus and Pseudomonas aeruginosa biofilms” (Eur J Med Chem, 2025).
Activity calls are given as the source filed them. The rule behind the calls is not given here.

Assays:
[1] = test system: Pseudomonas aeruginosa; assay: Antibacterial activity against Pseudomonas aeruginosa ATCC 10145 assessed as inhibition of bacterial growth incubated for 24 hrs by broth microdilution method; assay type: functional
[2] = test system: Pseudomonas aeruginosa; assay: Bactericidal activity against Pseudomonas aeruginosa ATCC 10145 assessed as bacterial killing incubated in MHB for 24 hrs and measured following culturing on agar plate for 24 hrs; assay type: functional; conditions: time 48 hrs
[3] = Metal chelating activity at iron(III) in chrome azurol sulphonate solution assessed as absorption spectra peak around […] incubated for 30 mins by spectrophotometric analysis
[4] = test system: Pseudomonas aeruginosa; assay: Antibacterial activity against Pseudomonas aeruginosa ATCC 10145 assessed as inhibition of bacterial growth by measuring inhibition zone diameter at 100 ug/ml incubated for 24 hrs in presence of tetracycline by disc diffusion method (reference value: 2 mm); assay type: functional; conditions: read-out: DIZ
[5] = test system: Pseudomonas aeruginosa; assay: Antibacterial activity against Pseudomonas aeruginosa ATCC 10145 assessed as inhibition of bacterial growth by measuring inhibition zone diameter at 100 ug/ml incubated for 24 hrs in presence of ciprofloxacin by disc diffusion method (reference value: 24.25 +/-0.5 mm); assay type: functional; conditions: read-out: DIZ
[6] = test system: Pseudomonas aeruginosa; assay: Antibacterial activity against Pseudomonas aeruginosa ATCC 10145 assessed as inhibition of bacterial growth by measuring inhibition zone diameter at 100 ug/ml incubated for 24 hrs in presence of gentamicin by disc diffusion method (reference value: 8.25 +/-0.5 mm); assay type: functional; conditions: read-out: DIZ
[7] = test system: Staphylococcus aureus; assay: Antibacterial activity against Staphylococcus aureus CECT 976 assessed as inhibition of bacterial growth by measuring inhibition zone diameter at 1000 ug/ml incubated for 24 hrs in presence of tetracycline by disc diffusion method (reference value: 24 +/- 1.41 mm); assay type: functional; conditions: read-out: DIZ
[8] = test system: Pseudomonas aeruginosa; assay: Antibiotic adjuvant activity against Pseudomonas aeruginosa ATCC 10145 assessed as potentiation of ciprofloxacin-induced antibacterial activity by measuring ciprofloxacin MIC at 15.6 ug/ml measured after 24 hrs by checkerboard assay (reference value: […] ug/ml); assay type: functional; conditions: dose 15.6 µg/ml
[9] = test system: Staphylococcus aureus; assay: Antibiotic adjuvant activity against Staphylococcus aureus CECT 976 assessed as potentiation of tobramycin-induced antibacterial activity by measuring tobramycin MIC at 62.5 ug/ml measured after 24 hrs by checkerboard assay (reference value: 4 ug/ml); assay type: functional; conditions: dose 62.5 µg/ml
[10] = test system: Pseudomonas aeruginosa; assay: Antibiotic adjuvant activity against Pseudomonas aeruginosa ATCC 10145 assessed as potentiation of ciprofloxacin-induced antibiofilm activity by measuring reduction in biomass production at 500 ug/ml measured after 24 hrs in presence of 1/16XMIC ciprofloxacin by cystal violet staining method (reference value: 36%); assay type: functional
[11] = test system: Pseudomonas aeruginosa; assay: Antibiotic adjuvant activity against Pseudomonas aeruginosa ATCC 10145 assessed as potentiation of ciprofloxacin-induced antibiofilm activity by measuring reduction in metabolic activity of biofilm cells at 500 ug/ml in presence of ciprofloxacin by resazurin staining based fluorescence analysis; assay type: functional, organism-based; conditions: dose 500.0 µg/ml
[12] = test system: Staphylococcus aureus; assay: Antibiofilm activity against Staphylococcus aureus CECT 976 assessed as reduction in metabolic activity of biofilm cells at 500 to 1000 ug/ml by resazurin staining based fluorescence analysis; assay type: functional; conditions: dose 500-1000 µg/ml; at 500 to 1000 µg/mL
[13] = test system: Staphylococcus aureus; assay: Antibiotic adjuvant activity against Staphylococcus aureus CECT 976 assessed as potentiation of tobramycin-induced antibiofilm activity by measuring reduction in metabolic activity of biofilm cells at 500 ug/ml in presence of tobramycin by resazurin staining based fluorescence analysis; assay type: functional, organism-based; conditions: dose 500.0 µg/ml
[14] = test system: Staphylococcus aureus; assay: Antibiofilm activity against preestablished 24 hr-old Staphylococcus aureus CECT 976 assessed as reduction in metabolic activity of biofilm cells at 10XMTC by resazurin staining based fluorescence analysis; assay type: functional
[15] = test system: Staphylococcus aureus; assay: Antibiofilm activity against preestablished 24 hr-old Staphylococcus aureus CECT 976 assessed as reduction in metabolic activity of biofilm cells at MTC by resazurin staining based fluorescence analysis; assay type: functional, organism-based
[16] = test system: Pseudomonas aeruginosa; assay: Antibiotic adjuvant activity against preestablished 24-hr old Pseudomonas aeruginosa ATCC 10145 assessed as potentiation of ciprofloxacin-induced antibiofilm activity by measuring reduction in metabolic activity of biofilm cells at 1000 ug/ml in presence of 1/8XMIC ciprofloxacin by resazurin staining based fluorescence analysis; assay type: functional, organism-based; conditions: dose 1000.0 µg/ml
[17] = test system: Cell membrane; assay: Disruption of membrane integrity in pre-established 24 hr-old Staphylococcus aureus CECT 976 biofilm at 10XMTC measured after 24 hrs by SYTO9/PI dye based epifluorescence microscopy; assay type: subcellular
[18] = test system: Cell membrane; assay: Disruption of membrane integrity in pre-established 24 hr-old Staphylococcus aureus CECT 976 assessed as reduction in number of cells at 10XMTC measured after 24 hrs in presence of 1XMIC tobramycin by SYTO9/PI dye based epifluorescence microscopy
[19] = test system: Staphylococcus aureus; assay: Inhibition of virulence production in Staphylococcus aureus CECT 976 biofilms assessed as diameter of gelatinases halo at 1/2XMTC measured after 48 hrs (reference value: 10.8 to 11.5 mm); assay type: functional
[20] = test system: Staphylococcus aureus; assay: Inhibition of virulence production in Staphylococcus aureus CECT 976 biofilms assessed as diameter of gelatinases halo at 1/2XMTC measured after 48 hrs in presence of 1/2XMIC tobramycin (reference value: 10 to 10.8 mm); assay type: functional
[21] = test system: Staphylococcus aureus; assay: Inhibition of virulence production in Staphylococcus aureus CECT 976 biofilms assessed as diameter of lipases halo at 1XMTC measured after 48 hrs (reference value: 11.8 to 12.5 mm); assay type: functional
[22] = test system: Staphylococcus aureus; assay: Inhibition of virulence production in Staphylococcus aureus CECT 976 biofilms assessed as diameter of lipases halo at 1/2XMTC measured after 48 hrs in presence of 1/8XMIC tobramycin (reference value: 12.5 to 12.8 mm); assay type: functional
[23] = test system: Staphylococcus aureus; assay: Inhibition of virulence production in Staphylococcus aureus CECT 976 biofilms assessed as diameter of lipases halo at 1/2XMTC measured after 48 hrs in presence of 1/2XMIC tobramycin (reference value: 12.5 to 13.5 mm); assay type: functional
[24] = test system: Staphylococcus aureus; assay: Inhibition of virulence production in Staphylococcus aureus CECT 976 biofilms assessed as diameter of protease halo at 1/2XMTC measured after 72 hrs in presence of 1/8XMIC tobramycin (reference value: 12.5 to 13.3 mm); assay type: functional
[25] = test system: Staphylococcus aureus; assay: Inhibition of virulence production in Staphylococcus aureus CECT 976 biofilms assessed as diameter of siderophores halo at 1/2XMTC measured after 48 hrs (reference value: 12 mm); assay type: functional
[26] = test system: Staphylococcus aureus; assay: Inhibition of virulence production in Staphylococcus aureus CECT 976 biofilms assessed as diameter of siderophores halo at 1XMTC measured after 48 hrs (reference value: 12 mm); assay type: functional
[27] = test system: Staphylococcus aureus; assay: Inhibition of virulence production in pre-established 24 hr-old Staphylococcus aureus CECT 976 biofilms assessed as diameter of lipases halo at 1XMTC measured after 48 hrs (reference value: 11.5 to 11.8 mm); assay type: functional
[28] = Cytotoxicity against human HepG2 cells assessed as metabolic activity by measuring resazurin reduction at 93.5 to 1000 ug/ml measured after 24 hrs by resazurin reduction method; assay type: toxicity, cell-based; conditions: at 93.5 to 1000 µg/mL, dose 93.5-1000 µg/ml, read-out: Activity
[29] = test system: HepG2; assay: Induction of ROS production in human HepG2 cells assessed as DCF fluorescence at 90 to 1000 ug/ml measured after 24 hrs by DCFH-DA staining based fluorescence analysis; assay type: toxicity, cell-based; conditions: hepg2, 24 h, at 90 to 1000 µg/mL, dose 90-1000 µg/ml

Row | Structure (SMILES) | MIC [1] [µg/mL] | MBC [2] [µg/mL] | Activity [3] | zone of inhibition at 100 µg/mL [4] [mm] | zone of inhibition at 100 µg/mL [5] [mm] | zone of inhibition at 100 µg/mL [6] [mm] | zone of inhibition at 1000 µg/mL [7] [mm] | MIC [8] [µg/mL] | MIC [9] [µg/mL] | inhibition at 500 µg/mL [10] [%] | Activity [11] | inhibition (INH) [12] [%] | Activity [13] | inhibition (INH) [14] [%] | Activity [15] | Activity [16] | Activity [17] | Activity [18] | Activity [19] [mm] | Activity [20] [mm] | other results
1 | O=c1cc(CO)occ1O [KOJIC ACID] | > 1000 | > 1000 | Active | 5 | 30.2 | 12 | 27.2 | 16 | 1 | 60 | inactive | 40 | inactive | 80 | inactive | inactive | inactive | Active | 0 | 0 | Activity [21]: 3.3 mm; Activity [22]: 2.5 mm; Activity [23]: 2.3 mm; Activity [24]: 0 mm; Activity [25]: 10 mm; Activity [26]: 10 mm; Activity [27]: 2.3 mm; viability at 24 h [28]: > 80%; Activity [29]: ~ 80%
2 | Cc1occc(=O)c1O [MALTOL] | > 1000 | > 1000 | Active | 3.5 | 27.2 | 11.8 | 25.8 | 16 | 1 | 60 | inactive | 40 | inactive | 80 | inactive | inactive | inactive | Active | 0 | 0 | Activity [21]: 3 mm; Activity [22]: 2 mm; Activity [23]: 2 mm; Activity [24]: 0 mm; Activity [25]: 10 mm; Activity [26]: 10 mm; Activity [27]: 2.8 mm; viability at 24 h [28]: > 80%; Activity [29]: ~ 116%
